Assay results as given in publication PMC13534789, “Molecular Glue Degraders Enhance CAPRIN1‐Dependent Lysosomal Degradation of APP and Reduce Amyloid β in Alzheimer's Disease” (Advanced Science, 2026).
Converted amounts (≈) assume the structure as drawn.

Columns and labels:
APP695‐HiBiT = target: T1, APP695‐HiBiT (Homo sapiens, UniProt P05067+Q14444); assay: APP695-HiBiT luminescence assay in HEK293 cells; format: cell-based
T1 construct: expressed in transfected cells; host or cells: HEK293, lentiviral transduction, hygromycin-selected single clones (#3, #9)
T1 sequence (P05067 18-695 isoform P05067-4 limits assumed): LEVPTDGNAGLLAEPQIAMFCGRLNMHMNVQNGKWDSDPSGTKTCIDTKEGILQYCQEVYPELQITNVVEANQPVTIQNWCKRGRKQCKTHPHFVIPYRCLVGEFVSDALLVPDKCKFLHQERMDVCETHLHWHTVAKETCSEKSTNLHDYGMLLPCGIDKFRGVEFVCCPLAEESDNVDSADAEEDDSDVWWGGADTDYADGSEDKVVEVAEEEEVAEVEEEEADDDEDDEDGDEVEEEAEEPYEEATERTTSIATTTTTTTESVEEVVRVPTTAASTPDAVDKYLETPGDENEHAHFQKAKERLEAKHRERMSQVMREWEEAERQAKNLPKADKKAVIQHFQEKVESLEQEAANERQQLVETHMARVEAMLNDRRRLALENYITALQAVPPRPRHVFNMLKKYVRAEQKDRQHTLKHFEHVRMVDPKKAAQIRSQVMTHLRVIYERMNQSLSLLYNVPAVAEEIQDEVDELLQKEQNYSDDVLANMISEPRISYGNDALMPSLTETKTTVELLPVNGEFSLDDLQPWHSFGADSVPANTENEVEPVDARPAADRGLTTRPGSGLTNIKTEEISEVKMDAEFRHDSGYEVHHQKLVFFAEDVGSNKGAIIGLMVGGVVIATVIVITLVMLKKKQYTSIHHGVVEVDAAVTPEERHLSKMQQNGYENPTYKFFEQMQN
T1 sequence (Q14444 2-709 limits assumed): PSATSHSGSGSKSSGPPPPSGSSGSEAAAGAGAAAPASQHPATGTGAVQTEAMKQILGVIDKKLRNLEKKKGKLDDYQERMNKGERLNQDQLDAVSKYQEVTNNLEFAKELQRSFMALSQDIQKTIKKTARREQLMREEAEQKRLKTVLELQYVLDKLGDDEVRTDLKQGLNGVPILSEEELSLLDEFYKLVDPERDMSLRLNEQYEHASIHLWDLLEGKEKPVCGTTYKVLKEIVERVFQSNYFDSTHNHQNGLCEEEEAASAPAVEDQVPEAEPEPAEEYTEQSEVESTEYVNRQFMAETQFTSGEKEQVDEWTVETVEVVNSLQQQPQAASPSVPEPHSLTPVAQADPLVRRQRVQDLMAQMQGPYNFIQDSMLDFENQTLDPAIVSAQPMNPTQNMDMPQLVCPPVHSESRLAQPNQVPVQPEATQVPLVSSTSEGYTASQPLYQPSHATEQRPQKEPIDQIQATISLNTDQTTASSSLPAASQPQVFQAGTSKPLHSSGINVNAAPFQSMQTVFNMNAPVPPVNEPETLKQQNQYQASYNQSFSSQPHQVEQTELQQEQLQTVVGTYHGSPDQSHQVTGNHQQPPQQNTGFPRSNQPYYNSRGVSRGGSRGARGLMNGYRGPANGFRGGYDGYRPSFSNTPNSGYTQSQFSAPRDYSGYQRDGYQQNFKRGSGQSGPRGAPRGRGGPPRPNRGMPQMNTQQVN
Text: We previously reported CAPRIN1‐targeted molecular degraders that bind to CAPRIN1 and F‐box protein 42 (FBXO42), promoting FBXO42‐mediated proteasomal degradation of small ubiquitin‐related modifier 1 (SUMO1), an oncoprotein, in human cancers. CAPRIN1 is a neuronal RNA‐binding protein involved in neuronal development and neurodegeneration. CAPRIN1 was reported to be a binding partner of APP [28]. Therefore, we thought to investigate whether CAPRIN1‐targeted degraders could promote APP degradation in APP‐expressing cell models. To establish screening models, we tagged wild‐type APP695 (APP695), the predominant neuronal isoform, with the small HiBiT tag (APP695‐HiBiT) and expressed APP695‐HiBiT in HEK293 cells. Cell lysates were analyzed using a luminescence‐based assay of HiBiT‐tagged protein [30], identifying clone #3 and #9 with robust APP695‐HiBiT expression (Figure S1A). Western blotting and ELISA confirmed intracellular expression of APP695 and extracellular release of Aβ42 in these clones (Figure S1B,C).
HEK293 cells were purchased from the American Type Culture Collection (ATCC). […] Once expanded, clones were analyzed by ELISA for amyloid beta 42 (Aβ42), western blot for APP expression, and Hibit‐lytic assay (Promega). […]

Kinetic solubility assay = format: physicochemical; details: for solubility at 24 h: aqueous buffer, kinetic from dmso stock, phosphate buffer pH 7.4, 24 h, room temperature, LC-MS, read-out: Solubility PBS
Procedure: 10 µL of 10 mM DMSO stock solution of test and control compounds was added to 990 µL phosphate buffer with pH 7.4. […] Samples were centrifuged, and the supernatant was transferred into a filter plate. Then, the filtrates were quantified by an LC‐MS system to get solubility results.

CAPRIN1 = target: T2, CAPRIN1 (Homo sapiens, UniProt Q14444); assay: SPR, compound onto CAPRIN1 alone; format: binding; details: immobilized CAPRIN1
T2 construct: 10xHis (followed by a 3C site) (N); made in house; host or cells: Tni (Hi5) insect cells, baculovirus
T2 sequence (Q14444 whole entry): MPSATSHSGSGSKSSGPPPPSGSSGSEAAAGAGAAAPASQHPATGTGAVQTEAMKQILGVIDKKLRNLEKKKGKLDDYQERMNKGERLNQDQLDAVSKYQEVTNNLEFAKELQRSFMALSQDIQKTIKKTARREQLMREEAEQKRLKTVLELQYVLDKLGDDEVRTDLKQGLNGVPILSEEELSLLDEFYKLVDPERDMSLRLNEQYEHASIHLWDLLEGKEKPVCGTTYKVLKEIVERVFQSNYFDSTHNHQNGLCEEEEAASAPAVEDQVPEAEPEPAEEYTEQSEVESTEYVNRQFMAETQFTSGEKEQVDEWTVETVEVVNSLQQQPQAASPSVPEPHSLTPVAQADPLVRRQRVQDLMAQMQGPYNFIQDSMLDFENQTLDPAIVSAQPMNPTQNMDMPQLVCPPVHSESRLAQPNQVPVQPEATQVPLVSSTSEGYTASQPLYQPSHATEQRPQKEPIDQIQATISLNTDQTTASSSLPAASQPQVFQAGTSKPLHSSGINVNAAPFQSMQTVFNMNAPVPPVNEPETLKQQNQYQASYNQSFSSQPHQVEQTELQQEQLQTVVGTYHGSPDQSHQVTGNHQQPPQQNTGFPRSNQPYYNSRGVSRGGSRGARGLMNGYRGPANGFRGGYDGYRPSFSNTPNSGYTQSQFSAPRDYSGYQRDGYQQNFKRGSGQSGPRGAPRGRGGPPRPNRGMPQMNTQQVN
Procedure: SPR experiments were conducted to investigate the interaction between APP695 and CAPRIN1 proteins using a Biacore T200 instrument (Cytiva). Both proteins were expressed in Tni (Hi5) insect cells and purified to homogeneity via tandem affinity and ion‐exchange. Protein purity and integrity were confirmed by SDS‐PAGE and size‐exclusion chromatography prior to analysis. All experiments were performed in a running buffer consisting of 50 mM HEPES at pH7.0, 100 mM KCl, 10% glycerol, and 0.01% (v/v) Tween‐20 supplemented with 0.1% (w/v) Sarkosyl (pH 7.4). APP695 was serially diluted in running buffer to final concentrations of 15, 5, 1, and 0.3 µM. Chip Preparation: A CM5 sensor chip (Cytiva) was activated using a 1:1 (v/v) mixture of 0.1 M N‐hydroxysuccinimide (NHS) and 0.1 M N‐ethyl‐N′‐(3‐dimethylaminopropyl) carbodiimide (EDC) to generate reactive ester groups. CAPRIN1 was diluted to 50 µg/mL in 10 mM Hepes‐KOH buffer (pH 6.0) and immobilized on the chip surface via standard amine coupling to achieve immobilization. Unreacted sites were blocked with 1 M ethanolamine‐HCl (pH 8.5). A reference flow cell was prepared similarly but without protein immobilization to control for non‐specific binding and bulk refractive index changes. Binding assay: Binding interactions were measured at 25°C with a flow rate of 30 µL/min. […]

Compound | APP695-HiBiT levels in library screen (APP695‐HiBiT; 10 µM, 24 h, APP695-HiBiT clones, vs DMSO) | Aqueous solubility by LC-MS, in words (Kinetic solubility assay) | solubility at 24 h (Kinetic solubility assay) [µg/mL] | Interaction with CAPRIN1 alone (CAPRIN1) | APP695-HiBiT levels, dose and time course (APP695‐HiBiT; HEK-APP695-HiBiT cells)
N#Cc1cccc(NC(=O)Nc2nc3ccc(C(=O)N4CCOCC4)cc3s2)c1 [compound 0043] | more effective | poor aqueous solubility | 0.06 (≈ 0.147 µM) | no noticeable interaction | 
COc1cccc(NC(=O)Nc2nc3ccc(C(=O)N4CCOCC4)cc3s2)c1 [compound 0152] |  | significantly improved aqueous solubility | 0.4 (≈ 0.97 µM) | no noticeable interaction | dose‐ and time‐dependent reduction in APP695‐HiBiT levels
